From ChEMBL document CHEMBL3779781, “New direct inhibitors of InhA with antimycobacterial activity based on a tetrahydropyran scaffold” (Eur J Med Chem, 2016)

How the values were obtained:
[1] = test system: Mycobacterium tuberculosis; assay: Ratio of MIC for isoniazid resistant Mycobacterium tuberculosis H37Rv clinical isolate 6 harboring InhA promoter C-15T mutant to MIC for Mycobacterium tuberculosis H37Rv; format: functional
[2] = test system: Mycobacterium tuberculosis; assay: Antimycobacterial activity against isoniazid resistant Mycobacterium tuberculosis H37Rv clinical isolate 4 harboring katG S315T mutant; format: functional, H37Rv isolate 4
[3] = test system: Mycobacterium tuberculosis; assay: Antimycobacterial activity against isoniazid resistant Mycobacterium tuberculosis H37Rv clinical isolate 1 harboring katG S315T mutant; format: functional, H37Rv isolate 1
[4] = test system: Mycobacterium tuberculosis; assay: Antimycobacterial activity against isoniazid resistant Mycobacterium tuberculosis H37Rv clinical isolate 2 harboring InhA promoter C-15T mutant; format: functional, H37Rv isolate 2
[5] = test system: Mycobacterium tuberculosis; assay: Antimycobacterial activity against isoniazid resistant Mycobacterium tuberculosis H37Rv clinical isolate 7 harboring katG S315T mutant; format: functional, H37Rv isolate 7
[6] = test system: Mycobacterium tuberculosis; assay: Ratio of MIC for isoniazid resistant Mycobacterium tuberculosis H37Rv clinical isolate 4 harboring katG S315T mutant to MIC for Mycobacterium tuberculosis H37Rv; format: functional
[7] = test system: Mycobacterium tuberculosis; assay: Antimycobacterial activity against isoniazid resistant Mycobacterium tuberculosis H37Rv clinical isolate 5 harboring katG S315T mutant; format: functional, H37Rv isolate 5
[8] = test system: Mycobacterium tuberculosis; assay: Antimycobacterial activity against isoniazid resistant Mycobacterium tuberculosis H37Rv clinical isolate 3 harboring InhA promoter C-15T mutant; format: functional, H37Rv isolate 3
[9] = test system: Mycobacterium tuberculosis; assay: Ratio of MIC for isoniazid resistant Mycobacterium tuberculosis H37Rv clinical isolate 5 harboring katG S315T mutant to MIC for Mycobacterium tuberculosis H37Rv; format: functional
[10] = test system: Mycobacterium tuberculosis; assay: Ratio of MIC for isoniazid resistant Mycobacterium tuberculosis H37Rv clinical isolate 2 harboring InhA promoter C-15T mutant to MIC for Mycobacterium tuberculosis H37Rv; format: functional
[11] = test system: Mycobacterium tuberculosis; assay: Ratio of MIC for isoniazid resistant Mycobacterium tuberculosis H37Rv clinical isolate 1 harboring katG S315T mutant to MIC for Mycobacterium tuberculosis H37Rv; format: functional
[12] = test system: Mycobacterium tuberculosis; assay: Ratio of MIC for isoniazid resistant Mycobacterium tuberculosis H37Rv clinical isolate 7 harboring katG S315T mutant to MIC for Mycobacterium tuberculosis H37Rv; format: functional
[13] = test system: Mycobacterium tuberculosis; assay: Ratio of MIC for isoniazid resistant Mycobacterium tuberculosis H37Rv clinical isolate 3 harboring InhA promoter C-15T mutant to MIC for Mycobacterium tuberculosis H37Rv; format: functional
[14] = test system: Mycobacterium tuberculosis; assay: Antimycobacterial activity against isoniazid resistant Mycobacterium tuberculosis H37Rv clinical isolate 6 harboring InhA promoter C-15T mutant; format: functional, H37Rv isolate 6

Compound | Ratio [1] | MIC [2] | MIC [3] | MIC [4] | MIC [5] | Ratio [6] | MIC [7] | MIC [8] | Ratio [9] | Ratio [10] | Ratio [11] | Ratio [12] | Ratio [13] | MIC [14]
Cc1cc(C)n(Cc2ccc(C(=O)NCC3(c4nc(-c5ccccc5)cs4)CCOCC3)cc2)n1 | 8 | 7.8 µM | 15.6 µM | 62.5 µM | 15.6 µM | 1 | 62.5 µM | 62.5 µM | 8 | 8 | 2 | 2 | 8 | 62.5 µM
NNC(=O)c1ccncc1 [ISONIAZID] | 3.1 | 25 µg/mL | 50 µg/mL | 3.1 µg/mL | 200 µg/mL | 50 | 12.5 µg/mL | 1.56 µg/mL | 25 | 6.25 | 100 | 400 | 3.1 | 1.56 µg/mL
